Measured values taken from PMC12076163 (Chemical Science, 2025).

Biological target: hen egg-white lysozyme (Gallus gallus, UniProt P00698)
Experiment: 1H–[…] HMQC NMR of caged lysozyme with cage-tethered GlcNAc
Format: biochemical

- Kd: 6 µM
SMILES: CC(=O)N[C@H]1C(O)O[C@H](CO)[C@@H](O)[C@@H]1O (stereo partly shown) [GlcNAc, N-acetylglucosamine]
